Measurements published in patent US10772859B2, “Methods of targeting APE/Ref-1 to inhibit hypoxia signaling genes” (Indiana University Research and Technology Corporation, priority 2015, dated 2020).
Read-outs that look alike come from different tables or passages of the source.

How the values were obtained:
CA9 mRNA [1] = test: qRT-PCR of CA9 mRNA levels under hypoxia; assay type: cell-based, human; conditions: 24 hours of exposure to APX3330 and 1% oxygen
Experimental: qRT-PCR Reactions: qRT-PCR was used to measure the mRNA expression levels of CA9 as described in Fishel, Jiang et al. (2011) Molecular Cancer Therapeutics 10(9): 1698-1708. Cells were treated with APE1/Ref-1 siRNA or increasing amounts of APX3330 in the presence or absence of hypoxia (1% and 0.2% O2) for 24 hours, then total RNA was extracted from cells using the QiagenRNeasy Mini kit (Valencia, Calif.). First-strand cDNA synthesis and quantitative PCR were performed as described in Fishel, Vasko et al. (2007) Mutat Res 614(1-2): 24-36; Jiang, Guo et al. (2009) DNA Repair (Amst) 8(11): 1273-1282; Fishel, Jiang et al. (2011) Molecular Cancer Therapeutics 10(9): 1698-1708. The relative quantitative mRNA level was determined using the comparative Ct method using 18S rRNA, RPLPO, and B2M as reference genes (Livak and Schmittgen (2001) Methods 25(4): 402-408; Fishel, Vasko et al. (2007) Mutat Res 614(1-2): 24-36; Jiang, Guo et al. (2009) DNA Repair (Amst) 8(11): 1273-1282). The primers for CA9, 18S, RPLPO, and B2M are commercially available (Applied Biosystems).

CA9 protein = test: Western blot of CA9 protein in 3D tumor spheroid cultures with or without CAFs; assay type: cell-based, human; conditions: Pa03C 3D tumor cultures, in the presence and absence of CAF cells
Experimental: Western Blot Analysis: Western blots were performed as described in Wang, Luo et al. (2004) Mol Cancer Ther 3(6): 679-686; Fishel, He et al. (2008) DNA Repair (Amst) 7(2): 177-186; Fishel, Colvin et al. (2010) Hematol 38(12): 1178-1188; Jiang, Zhou et al. (2010) Cancer Investigation 28(9): 885-895; Fishel, Jiang et al. (2011) Molecular Cancer Therapeutics 10(9): 1698-1708; Cardoso, Jiang et al. (2012) PLoS ONE 10: e47462; Fishel, Wu et al. (2015) J Biol Chem 290(5): 3057-3068, with antibodies for APE1/Ref-1 (Novus Biologicals; Littleton, Colo.), HIF1α (GeneTex; Irvine, Calif.), STAT1, STATS, (Cell Signaling; Danvers, Mass.), NFκB (abcam; Cambridge, Mass.), CA9 (Santa Cruz; Dallas, Tex.) and Vinculin (Sigma; St. Louis, Mo.).
3D Co-Cultures: Ultra low attachment 96-well plates (Corning Inc., Life Sciences) were used to generate 3-dimensional tumor spheroids in the presence and absence of CAFs (75 μL/well) as described previously (Sempere, Gunn et al. (2011) Cancer Biol Ther 12(3): 198-207; Arpin, Mac et al. (2015) Molecular Cancer Therapeutics). […] On Day 12, spheroids were analyzed using Thermo ArrayScan high-content imaging system (Lovborg, Nygren et al. (2004) Mol Cancer Ther 3(5): 521-526; Lindblom, Berg et al. (2012) Toxicol Pathol 40(1): 18-32). […]

Pa02C cells = test: Alamar Blue cell proliferation in monolayer under hypoxia; assay type: cell-based, human; conditions: hypoxia (0.2%) for six days, single agent
Experimental: Cell Proliferation: PDAC cell proliferation in monolayer was measured using the Alamar Blue assay as described in Fishel, Wu et al. (2015) J Biol Chem 290(5): 3057-3068. Cells treated with APX3330 and SLC-0111 were exposed to hypoxia for six days followed by addition of Alamar Blue reagent (Invitrogen) and subsequent fluorescence analysis. Fold change refers to the fluorescence reading for cells treated with indicated inhibitors compared to cells growing in normal media.

[2] = test system: Pa03C and Panc10.05 tumor spheroids with or without CAFs; test: 3D co-culture tumor spheroid model (Example 1); assay type: cell-based, human; conditions: for tumor cell killing (reduction in area of tumor cells): 3D spheroids, 12 days in culture, with and without CAFs
Experimental: 3D Co-Cultures: Ultra low attachment 96-well plates (Corning Inc., Life Sciences) were used to generate 3-dimensional tumor spheroids in the presence and absence of CAFs (75 μL/well) as described previously (Sempere, Gunn et al. (2011) Cancer Biol Ther 12(3): 198-207; Arpin, Mac et al. (2015) Molecular Cancer Therapeutics). Cells were stably transduced with EGFP (green) or TdTomato (red) as indicated to preserve the genetic characteristics of the low passage patient cells (Jones, Zhang et al. (2008) Science 321(5897): 1801-1806). Cells were re-suspended in colorless DMEM growth media containing 3% Reduced Growth Factor Matrigel (RGF, BD Biosciences) and 5% FBS. Following plating, cells were treated on Days 4 and 8 with media containing 5% serum, 3% RGF Matrigel, and inhibitors as indicated. On Day 12, spheroids were analyzed using Thermo ArrayScan high-content imaging system (Lovborg, Nygren et al. (2004) Mol Cancer Ther 3(5): 521-526; Lindblom, Berg et al. (2012) Toxicol Pathol 40(1): 18-32). Images of 3D structures were captured by ArrayScan using a 2.5× objective for TdTomato and EGFP; then 2D projections were processed to quantify differences in total intensity and total area of both CAFs and tumor.

[3] = test system: PDAC tumor spheroids (Pa03C and Panc10.05) alone and with CAFs; test: Three-dimensional growth assay, PDAC/CAF co-culture (Example 2); assay type: cell-based, human; conditions: tumor spheroids alone and in culture with CAFs
Experimental: Ninety-six well plates were coated with 1% Noble Agar (Difco) (50 μL/well). mCherry-labeled PDAC cells and EGFP-labeled CAFs were resuspended in normal growth media containing 3% Matrigel (BD Biosciences) at a cell ratio of 1:4 (tumor:CAF) and plated on top of solidified 1% Noble Agar. Cells were fed on Days 4 and 8 following plating with media containing 5% serum+3% Matrigel+investigational drug.
Utilizing APX3330, JAK 2 inhibitor (Ruxolitinib (INCB018424; Fisher Scientific) (“RUX”)) and lead STATS inhibitors (PG-S3-001, DR-4-89), the effects of Ref-1/STAT3 inhibition in PDAC low passage patient-derived cell lines (Pa03C and Panc10.05) were evaluated. The response using proliferation-based 3D co-culture assays and statistical analyses to assess synergy, additively or antagonism was evaluated using the Chou-Talalay method.
This Example was designed to visualize the same live co-cultures over 12 days with images captured by Thermo ArrayScan at 8 and 12 days of co-culture. Cancer and stromal cells in this model were marked with distinct fluorescent proteins (mCherry for tumor and EGFP for CAFs) so that the cell populations could be differentiated and quantified. […] In this way, drug efficacy of PDAC cells could be evaluated in co-culture with CAFs, which more faithfully mimics the natural in vivo PDAC environment.

CA9 mRNA [4] = conditions: Panc-1 and MIA-PaCa2 cells exposed to hypoxia, previously shown; cited from earlier work
PDAC = test: Single-agent STAT3 inhibitor activity in vivo (FIG. 14)

| Compound | CA9 mRNA levels (CA9 mRNA [1]; Pa03C cells) | CA9 mRNA levels (CA9 mRNA [1]; pancreatic CAF cells) | CA9 expression (protein) (CA9 protein) | PDAC cell proliferation (Pa02C cells) | tumor cell killing (reduction in area of tumor cells) [2] | killing of tumor spheroids [3] | CA9 mRNA levels (CA9 mRNA [4]) | activity in vivo (PDAC) | cell killing in tumor cells versus CAFs ([2]; 3D co-culture, especially CAF19 with Pa03C) |
| --- | --- | --- | --- | --- | --- | --- | --- | --- | --- |
| CCCCCCCCCC(=CC1=C(C)C(=O)C(OC)=C(OC)C1=O)C(=O)O [APX3330] | attenuated in a dose-dependent manner | attenuated in a dose-dependent manner | decreased CA9 expression in 3D tumor cultures in a dose-dependent manner | dose-dependent decrease | decrease in tumor cell area | effectively killed both tumor spheroids alone and in culture with CAFs | decreases | – | – |
| CC(C)C(C(=O)N(Cc1ccc(C2CCCCC2)cc1)c1ccc(C(=O)O)cc1)N(C)S(=O)(=O)c1c(F)c(F)c(F)c(F)c1F (centres unmarked) [PG-S3-001, reference compound] | – | – | – | – | – | effectively killed both tumor spheroids alone and in culture with CAFs | – | some activity was observed in vivo | – |
| NS(=O)(=O)c1ccc(NC(=O)Nc2ccc(F)cc2)cc1 [SLC-0111] | – | – | – | – | dramatic effects on tumor cell killing observed at lower doses than in a monolayer | – | – | – | more dramatic in the tumor cells than in the CAFs |
